In ChEMBL document CHEMBL1126269, “Optimization of the quinoline and substituted benzyl moieties of a series of phenyltetrazole leukotriene D4 receptor antagonists” (J Med Chem, 1992) one finds pKB data, which are given here for 18 molecules.

Values joined by “and” are separate entries in the source; they are usually repeats but may differ in a detail not shown here. Equal values may be shown once.

The first assay concerns the target T1, Cysteinyl leukotriene receptor 1 (Cavia porcellus) (UniProt Q2NNR5).
T1 sequence (whole entry): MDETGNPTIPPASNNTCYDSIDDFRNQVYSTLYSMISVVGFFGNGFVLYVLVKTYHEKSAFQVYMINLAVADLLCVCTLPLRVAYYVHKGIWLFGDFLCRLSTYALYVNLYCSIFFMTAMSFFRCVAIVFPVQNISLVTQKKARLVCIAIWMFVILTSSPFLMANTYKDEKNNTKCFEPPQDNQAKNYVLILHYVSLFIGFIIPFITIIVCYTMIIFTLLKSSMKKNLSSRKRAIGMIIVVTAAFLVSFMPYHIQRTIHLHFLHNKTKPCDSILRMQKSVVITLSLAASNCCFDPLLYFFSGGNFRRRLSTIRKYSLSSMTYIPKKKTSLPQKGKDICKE
As to the kind of experiment: Antagonistic activity in vitro against leukotriene-D4 (LTD4) induced guinea pig ileum contraction. It is filed as functional, tissue-based.
`c1cc(OCc2ccc3ccccc3n2)cc(-c2nnn(Cc3ccccc3-c3nn[nH]n3)n2)c1` came in with a pKB of 9.1.

The subject of another assay is Cysteinyl leukotriene receptor (Cavia porcellus). As to the kind of experiment: In vitro inhibition of leukotriene D4 induced contractions of isolated guinea pig ileum.
The molecule `COc1cc(C(=O)O)ccc1Cn1nnc(-c2cccc(/C=C/c3ccc4ccccc4n3)c2)n1` had a negative logarithm of the KB (pKB) of 7.4. The same measure, in the same setting: the same measure for `O=C(O)c1ccccc1Cn1nnc(-c2cccc(CSc3ccc4ccccc4n3)c2)n1`: 7; for `O=C(O)c1ccccc1Cn1nnnc1-c1cccc(OCc2ccc3ccccc3n2)c1`: 6.5. `O=C(O)c1ccccc1Cn1nnc(-c2cccc(OCc3nc4ccccc4s3)c2)n1` returned a pKB of 8.3. On to `COc1cccc(C(=O)O)c1Cn1nnc(-c2cccc(OCc3ccc4ccccc4n3)c2)n1`, for which the pKB was 8.4. Still for that read-out and setting: to `O=C(O)c1ccccc1Cn1nnc(-c2cccc(OCc3ccc4ccc(Cl)cc4n3)c2)n1` belongs 8.7; to `O=C(O)c1ccccc1CCn1nnc(-c2cccc(/C=C/c3ccc4ccc(Cl)cc4n3)c2)n1`, 7.9; to `COc1cc(C(=O)O)ccc1Cn1nnnc1-c1cccc(/C=C/c2ccc3ccccc3n2)c1`, 8.2. Still for that read-out and setting: the same measure for `O=C(O)Cc1ccccc1Cn1nnc(-c2cccc(OCc3ccc4ccccc4n3)c2)n1`: 7.6. The same measure, in the same setting: the same measure for `O=C(O)c1ccccc1Cn1nnc(-c2cccc(/C=C/c3ccc4ccc(Cl)cc4n3)c2)n1`: 8.8. With `O=C(O)c1cccc(Cn2nnc(-c3cccc(/C=C/c4ccc5ccccc5n4)c3)n2)c1`, the pKB amounted to 7.1. Same read-out and setting: the same measure for `O=C(O)c1ccccc1Cn1nnc(-c2cccc(/C=C/c3ccc4ccccc4n3)c2)n1`: 8.5; for `O=C(O)c1ccccc1Cn1nnc(-c2cccc(OCc3ccc4ccccc4n3)c2)n1`: 8.3 and 8.4; for `O=C(O)c1sccc1Cn1nnc(-c2cccc(/C=C/c3ccc4ccc(Cl)cc4n3)c2)n1`: 7.8. Same read-out and setting: to `O=C(O)c1ccoc1Cn1nnc(-c2cccc(/C=C/c3ccc4ccccc4n3)c2)n1` belongs 7.9; to `O=C(O)c1cc(F)ccc1Cn1nnc(-c2cccc(/C=C/c3ccc4ccc(Cl)cc4n3)c2)n1`, 9.1. Still for that read-out and setting: the same measure for `O=C(O)Cc1ccccc1Cn1nnc(-c2cccc(/C=C/c3ccc4ccccc4n3)c2)n1`: 7.7.
